# Patent US9364479B2, “Use of a receptor-type kinase modulator for treating polycystic kidney disease” (SYMPHONY EVOLUTION, INC., priority 2010, dated 2016)
# Marks after values point to notes of the source that are not given here.
# What was measured:
# CYP2D6 = CYP2D6 (Homo sapiens, UniProt P10635)
# GSK3β = target: T1, GSK3β (Homo sapiens, UniProt P49841); test: Chemiluminescent kinase assay; type: biochemical
# T1 construct: His6 (N); purchased Upstate Biotechnology
# Procedure: (§1) Further screening was performed using the biochemical assay methods of Example 2. Additional description of the components and concentrations are summarized in Table 8, Table 9, and Table 10, below.
# EMK = target: T2, EMK (Homo sapiens, UniProt Q7KZI7); test: Chemiluminescent kinase assay; type: biochemical
# T2 construct: His6 (N)
# T2 sequence (Q7KZI7 whole entry): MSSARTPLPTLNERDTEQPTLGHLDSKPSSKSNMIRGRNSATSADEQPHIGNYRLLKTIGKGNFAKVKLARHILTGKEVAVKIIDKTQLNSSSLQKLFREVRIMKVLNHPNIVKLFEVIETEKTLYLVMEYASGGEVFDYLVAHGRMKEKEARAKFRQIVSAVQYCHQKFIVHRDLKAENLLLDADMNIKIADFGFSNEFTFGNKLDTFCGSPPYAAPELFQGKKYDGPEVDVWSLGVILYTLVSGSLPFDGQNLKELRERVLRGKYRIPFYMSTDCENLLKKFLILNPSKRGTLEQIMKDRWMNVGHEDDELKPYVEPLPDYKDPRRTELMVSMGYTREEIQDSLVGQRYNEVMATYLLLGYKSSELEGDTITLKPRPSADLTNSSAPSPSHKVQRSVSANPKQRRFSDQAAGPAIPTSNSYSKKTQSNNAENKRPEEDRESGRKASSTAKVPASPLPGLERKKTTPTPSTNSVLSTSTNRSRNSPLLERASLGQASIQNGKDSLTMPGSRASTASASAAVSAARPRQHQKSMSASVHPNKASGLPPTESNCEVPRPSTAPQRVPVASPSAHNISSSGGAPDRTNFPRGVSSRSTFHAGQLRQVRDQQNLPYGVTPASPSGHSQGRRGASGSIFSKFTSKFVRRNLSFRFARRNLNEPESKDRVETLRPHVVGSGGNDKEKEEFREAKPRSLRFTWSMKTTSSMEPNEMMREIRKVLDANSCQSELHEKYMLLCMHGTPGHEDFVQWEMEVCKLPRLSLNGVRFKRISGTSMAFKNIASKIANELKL
# Procedure: as §1
# MAP4K3 = target: T3, MAP4K3 (Homo sapiens, UniProt Q8IVH8); test: Chemiluminescent kinase assay; type: biochemical
# T3 construct: Kinase domain,; His6 (N)
# T3 sequence (Q8IVH8 16-273 limits assumed, species assumed): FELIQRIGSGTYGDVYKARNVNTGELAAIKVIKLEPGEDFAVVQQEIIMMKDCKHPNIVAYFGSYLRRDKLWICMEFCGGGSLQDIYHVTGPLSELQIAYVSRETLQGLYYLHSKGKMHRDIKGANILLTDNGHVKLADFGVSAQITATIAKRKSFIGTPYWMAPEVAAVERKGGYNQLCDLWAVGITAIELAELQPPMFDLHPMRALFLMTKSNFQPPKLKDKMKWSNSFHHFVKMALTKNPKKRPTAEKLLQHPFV
# Procedure: as §1
# Flt-4 = Flt-4 (Homo sapiens, UniProt P35916); test: AlphaScreen tyrosine kinase assay; type: biochemical; design: residues D725-R1298 of human Flt-4, Proqinase; purchased Proqinase; conditions: ATP at Km
# Sequence of Flt-4 (P35916 725-1298 isoform P35916-1): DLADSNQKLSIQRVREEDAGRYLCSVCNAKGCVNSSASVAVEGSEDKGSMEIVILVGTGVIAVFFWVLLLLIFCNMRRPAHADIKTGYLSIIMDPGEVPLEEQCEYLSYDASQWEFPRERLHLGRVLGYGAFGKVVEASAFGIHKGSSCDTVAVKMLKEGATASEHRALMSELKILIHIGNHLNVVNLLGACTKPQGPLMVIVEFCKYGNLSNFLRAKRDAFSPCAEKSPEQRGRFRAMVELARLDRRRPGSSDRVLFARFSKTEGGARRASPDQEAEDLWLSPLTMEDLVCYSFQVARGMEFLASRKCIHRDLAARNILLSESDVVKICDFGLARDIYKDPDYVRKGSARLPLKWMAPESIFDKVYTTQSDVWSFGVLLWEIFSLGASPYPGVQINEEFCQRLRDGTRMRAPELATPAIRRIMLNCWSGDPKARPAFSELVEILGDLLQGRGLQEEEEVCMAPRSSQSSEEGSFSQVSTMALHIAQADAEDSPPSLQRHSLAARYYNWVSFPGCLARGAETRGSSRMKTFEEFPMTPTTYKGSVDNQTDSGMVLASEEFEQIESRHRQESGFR
# Procedure: Dose-response experiments were done using 10 different inhibitor concentrations in 384-well microtiter plates. The ATP concentration used for each assay was equivalent to the Km for each kinase. IC50 values were calculated by nonlinear regression analysis using the four-variable equation: Y=min+(max−min)/[1+([I]/IC50)N], where Y is the observed signal, [I] is the inhibitor concentration, min is the background signal in the absence of enzyme (0% enzyme activity), max is the signal in the absence of inhibitor (100% enzyme activity), IC50 is the inhibitor concentration required at 50% enzyme inhibition, and N represents the empirical Hill slope as a measure of cooperativity.
# An AlphaScreen tyrosine kinase assay was used to measure ErbB2 and Flt-4 activity. Donor beads coated with streptavidin and acceptor beads coated with PY100 anti-phosphotyrosine antibody (Perkin-Elmer) were used. Biotinylated poly(Glu,Tyr) 4:1 was used as the substrate. Substrate phosphorylation was measured by luminescence following donor-acceptor bead addition followed by complex formation. […] After 2 to 16 h of incubation at room temperature, plates were read using an AlphaQuest reader (Perkin-Elmer).
# GABA A, Agonist Site = test: NovaScreen assay; type: binding
# c-Kit = c-Kit (Homo sapiens, UniProt P10721); test: c-Kit autophosphorylation ELISA, transfected HeLa cells; type: cell-based; design: expressed in transfected cells; host or cells: HeLa; conditions: read-out: Cellular IC50, autophosphorylation
# Sequence of c-Kit (P10721 26-976): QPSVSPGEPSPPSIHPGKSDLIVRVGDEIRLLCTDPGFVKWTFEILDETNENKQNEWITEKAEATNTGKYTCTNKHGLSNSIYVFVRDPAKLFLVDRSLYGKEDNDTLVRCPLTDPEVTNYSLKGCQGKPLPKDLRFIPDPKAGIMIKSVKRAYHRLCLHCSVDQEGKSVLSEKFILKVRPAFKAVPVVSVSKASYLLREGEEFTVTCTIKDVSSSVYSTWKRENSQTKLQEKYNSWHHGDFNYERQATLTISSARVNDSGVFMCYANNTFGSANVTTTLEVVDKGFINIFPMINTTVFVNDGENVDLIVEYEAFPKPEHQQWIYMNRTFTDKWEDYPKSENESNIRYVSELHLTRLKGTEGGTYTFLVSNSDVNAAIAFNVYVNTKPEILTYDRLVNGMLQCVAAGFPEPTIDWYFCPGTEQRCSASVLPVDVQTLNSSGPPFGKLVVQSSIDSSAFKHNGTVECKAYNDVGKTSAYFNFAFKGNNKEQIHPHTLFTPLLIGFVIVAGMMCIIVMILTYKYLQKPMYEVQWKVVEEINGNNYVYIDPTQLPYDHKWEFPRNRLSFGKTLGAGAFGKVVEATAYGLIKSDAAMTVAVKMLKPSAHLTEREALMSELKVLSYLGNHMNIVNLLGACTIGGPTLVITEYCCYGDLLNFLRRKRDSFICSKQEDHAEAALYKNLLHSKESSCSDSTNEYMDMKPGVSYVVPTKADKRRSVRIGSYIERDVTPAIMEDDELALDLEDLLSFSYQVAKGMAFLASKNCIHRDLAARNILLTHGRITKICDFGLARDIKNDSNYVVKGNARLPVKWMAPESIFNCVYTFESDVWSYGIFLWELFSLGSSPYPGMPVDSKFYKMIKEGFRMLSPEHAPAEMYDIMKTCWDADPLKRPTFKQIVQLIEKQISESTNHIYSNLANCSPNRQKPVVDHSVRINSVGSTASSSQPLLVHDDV
# Procedure: The c-Kit autophosphorylation ELISA utilized HeLa (ATCC) cells. Cells were seeded at 6×10^5 cells/well onto 100 mm dish. 24 hours later, HeLa cells were transfected with a mammalian expression plasmid containing a CMV promoter operably linked to the open reading frame of human c-kit with a Flag epitope tag on the C-terminus 24 hours later, c-Kit transfected HeLa cells were trypsinized and re-seeded at 6×10^3 cells/well into 96-well microtiter plates (Costar 3904), in DMEM (Cellgro) containing 10% FBS (Heat-Inactivated, Hyclone), 1% penicillin-streptomycin (Cellgro), and 1% NEAA solution (Cellgro). The cells were then incubated at 37° C., 5% CO2 for 24 hr. […] Negative control wells were left unstimulated. Following stimulation, media was removed, the cell monolayer washed with cold PBS and immediately lysed with cold lysis buffer. Lysates were incubated in 96-well streptavidin-coated plates (Pierce) coated with biotin-conjugated, goat anti-human c-Kit (1 μg/ml, R&D Systems). Plates were washed 3× with TBST and incubated either with HRP-conjugated anti-phosphotyrosine (1:10,000, Zymed Laboratories, Inc) or HRP-conjugated anti-Flag(M2) (1:2,000, Sigma). Plates were washed again as described above followed by the addition of a luminol-based substrate solution and read with a Victor spectrophotometer (Wallac).
# Phospho-EGFR Tyr1068 = target: T4, Phospho-EGFR Tyr1068 (Homo sapiens, UniProt P00533, L858R/T790M); test: Immunohistochemical analysis of phosphorylation in H1975 xenografts; type: in vivo, mouse; conditions: 14-day dosing
# T4 construct: host or cells: H1975 (cultured cells; s.c. xenografts in mice)
# Procedure: For immunohistochemical analysis of H1975, MDA-MB-231 and other xenografts, tumors were excised after euthanasia and fixed in zinc fixative (BD Biosciences) for 48 h before being processed into paraffin blocks. Serial sections at 5 μm were obtained from the area of largest possible surface for each tumor and stained using standard methods. The following antibodies were used: Ki67 (SP6; Labvision), CD31 (MECA.32; BD Biosciences), pERK^Thr202/Tyr204 (phospho-p44/42 mitogen-activated protein kinase; Cell Signaling Technology), pAKT^Ser473 (Cell Signaling Technology), and pEGFR^Tyr1068 (Cell Signaling Technology). For immunofluorescent staining, sections were then incubated with Alexa 594-conjugated goat anti-rabbit secondary antibody (Invitrogen) and mounted in Fluorescent Mounting Medium (DAKO) containing 4′,6-diamidino-2-phenylindole (Molecular Probes) as a nuclear counterstain. Fluorescent staining was visualized using a Zeiss Axiolmager and digitally captured using a Zeiss high-resolution camera coupled to AxioVision image analysis software. Two to three nonoverlapping representative fields were captured at ×200 or ×400 magnification depending on histologic readout and quantified using the integrated morphometric analysis functions in Metamorph software (Universal Imaging Corp.). Apoptotic cells were detected using terminal deoxynucleotidyl transferase-mediated dUTP nick end labeling in situ cell death detection kit according to the manufacturer's instructions (Roche Diagnostics GmbH).
# Results are presented as mean±SD or SE as indicated for each graph or table. For IC50 comparison in the A431 cell viability experiment, two sample Student's t tests were applied to determine P values for each IC50 pair assuming that the random fluctuations of replicates around the dose-response curve are distributed [log]normally with the individual replicates used as the ‘sample size’ for the t test (nine point dose response done in triplicate).
# Sequence of CYP2D6 (P10635 whole entry): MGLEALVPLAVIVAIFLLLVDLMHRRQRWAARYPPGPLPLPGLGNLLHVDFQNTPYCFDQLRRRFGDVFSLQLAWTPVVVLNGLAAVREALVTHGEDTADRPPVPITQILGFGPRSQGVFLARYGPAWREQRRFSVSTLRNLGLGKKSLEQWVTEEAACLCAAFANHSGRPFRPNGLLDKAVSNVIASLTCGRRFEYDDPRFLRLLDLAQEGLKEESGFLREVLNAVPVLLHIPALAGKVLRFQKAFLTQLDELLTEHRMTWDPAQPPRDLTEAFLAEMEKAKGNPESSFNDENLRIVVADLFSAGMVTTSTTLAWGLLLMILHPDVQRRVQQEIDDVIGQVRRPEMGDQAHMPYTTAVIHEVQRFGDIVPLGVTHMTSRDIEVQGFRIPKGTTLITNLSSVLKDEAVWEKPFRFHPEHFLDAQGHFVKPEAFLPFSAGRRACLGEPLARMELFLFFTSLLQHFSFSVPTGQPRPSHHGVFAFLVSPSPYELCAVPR
# T1 sequence (P49841 whole entry): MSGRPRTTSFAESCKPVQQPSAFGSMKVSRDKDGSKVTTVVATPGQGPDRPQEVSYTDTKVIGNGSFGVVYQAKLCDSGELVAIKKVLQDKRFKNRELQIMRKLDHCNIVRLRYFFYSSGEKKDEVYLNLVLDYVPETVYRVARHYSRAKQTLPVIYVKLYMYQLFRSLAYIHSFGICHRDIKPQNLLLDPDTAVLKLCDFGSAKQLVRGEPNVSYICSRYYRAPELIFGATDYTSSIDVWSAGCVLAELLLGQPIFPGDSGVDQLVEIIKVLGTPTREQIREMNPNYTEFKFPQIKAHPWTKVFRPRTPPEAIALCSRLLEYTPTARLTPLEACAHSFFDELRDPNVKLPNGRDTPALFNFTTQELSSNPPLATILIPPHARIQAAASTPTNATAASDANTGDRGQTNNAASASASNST
smiles,measurement,setting,value
"COc1cc2c(Nc3ccc(Cl)c(Cl)c3F)ncnc2cc1OC[C@@H]1C[C@@H]2CN(C)C[C@@H]2C1 [XL-647, N-(3,4-dichloro-2-fluorophenyl)-7-({[(3aR,5r,6aS)-2-methyloctahydrocyclopenta[c]pyrrol-5-yl]methyl}oxy)-6-(methyloxy)quinazolin-4-amine]","CYP2D6 inhibition, in words",CYP2D6,inhibitor
same,IC50,GSK3β,> 1000 nM
same,IC50,EMK,> 10000 nM
same,IC50,MAP4K3,> 1000 nM
same,IC50,Flt-4,8.7 ± 0.6 nM
same,"Inhibition, 10 μM XL-647","GABA A, Agonist Site",1.07%
same,IC50,c-Kit,90 nM
same,Phospho-EGFR Tyr1068 % Cells,Phospho-EGFR Tyr1068; 10 mg/kg,14 ± 1.9%
same,Phospho-EGFR Tyr1068 % Reduction,Phospho-EGFR Tyr1068; 10 mg/kg,49.0^a %
same,Phospho-EGFR Tyr1068 % Cells,Phospho-EGFR Tyr1068; 30 mg/kg,12 ± 1.3%
same,Phospho-EGFR Tyr1068 % Reduction,Phospho-EGFR Tyr1068; 30 mg/kg,56.1^a %
same,Phospho-EGFR Tyr1068 % Cells,Phospho-EGFR Tyr1068; 100 mg/kg,10 ± 1.8%
same,Phospho-EGFR Tyr1068 % Reduction,Phospho-EGFR Tyr1068; 100 mg/kg,63.7^a %
